The source of these data is EP0362382A1, “METHOD OF STERILIZING PLANT POLLEN” (VSESOJUZNY NAUCHNO-ISSLEDOVATELSKY INST. SELSKOKHOZYAISTV. …, priority 1988, dated 1989).

One assay concerns Winterweizen. The assay is described as follows: Field test of gametocidal activity (sterilisation of anthers), winter wheat. It is filed as in vivo. As to conditions: V. Periode der Organogenese, 2%ige wäßrige Emulsion. The source says:
(§1) Die gametozide Aktivitat der erfindungsgemäßen Sterilisationsmittel war im Feldversuch in verschiedenen bodenklimatischen Zonen mit Teilstücken von 10 m^2 Größe in drei- bis viermaliger Wiederholung festgestellt. Jedes Sterilisationsmittel wurde mindenstens 5 Jahre lang geprüft.
(§2) Die Entwicklung der Perioden der Organogenese wird zytologisch überwacht. Die Behandlung von Pflanzen mit dem Sterilisationsmittel erfolgt am Anfang der fünften Periode der Organogenese nach Kupermann.
(§3) Mit dem Ährenschieben verwirklicht man die Isolierung von Hauptähren und anderen Stockwerken in Pergamentbeuteln. Bei Weizen und Tritikale werden Einzelisolatoren benutzt. Bei Roggen schließt man je Ähre 5 bis 7 verschiedene nebeneinander befindliche Pflanzen unter einen gemeinsamen Isolator ein. Bei Hierse wird jede Rispe getrennt isoliert. Der Sterilitätsprozentsatz (X) für Weizen, Roggen, Tritikale und Hirse wird nach der Formel [formula] ermittelt.
(§4) Die Kornzahl in nicht isolierten Ähren von Kontrollpflanzen wird bedingt für 100 % Ansetzen bei freier Bestäubung angenommen.
(§5) Um zuverlässige Angaben zu erhalten, verwendet man 20 bis 25 Isolatoren jeder Wiederholung für Weizen und Tritikale, 10 .bis 15 Isolatoren jeder Wiederholung für Roggen und Hirse.
Pflanzen des Winterweizens Sorte Mironowskaja 808 werden in der V. Periode der Organogenese durch Zerstäubung der 2%igen wäßrigen Emulsion der δ, δ' -Thiodivaleriansäure mit Hilfe einer Rückenspritze behandelt. Als Emulgiermittel wird 0,1 Masse% Kalziumalkylbenzalsulfonat mit 12 bis 14 Kohlenstoffatomen hinzugefügt. Als Adjuvans führt man in die Emulsion 0,01 Masse% Dimethylsulfoxid ein. Der Verbrauch an Präparat beträgt 20 kg/ha. Als Kontrolle dienen Pflanzen, behandelt mit einem Verdünner ohne Sterilisationsmittel. Die Ergebnisse sind in der Tabelle 1 angegeben. […] Periode der Organogenese erhalten.
Der Prozeß erfolgt analog zu dem im Beispiel 1 bescnriebenen. Als Sterilisationsmittel benutzt man 2%ige wäßrige Emulsion von Natriumsalz der δ, δ'-Thiodivaleriansäure, δ, δ' -Sulfonyldivaleriansäure, Natriumsalz der δ, δ' -Sulfonyldivaleriansäure, Kaliumsalz der δ, δ'--Sulfonyldivaleriansäure, Bis(di-n-butyläther) der δ, δ'--Thiodivaleriansäure, 4-Karboxybutyldezylsulfid bzw.
Pflanzen des Winterweizens Sorte Korall werden in der V. Periode der Organogenese (nach Kupermann) mit 2%iger wäßriger Emulsion von Bis(2-äthylhexyläther) der δ, δ' --Thiodivaleriansäure, 4-Karboxybutyldezylsulfid bzw. Bis(di--n-butyläther) der δ, δ' -Thiodivalerianqäure behandelt. Die Emulsion enthält 0,1 Masse% Kalziumalkylbenzolsulfonat mit 12 bis 14 Kohlenstoffatomen und 0,01 Masse% Dodezylsulfat. Der Verbrauch an Präparat beträgt 12 kg/ha. Als Kontrolle dienen Pflanzen, behandelt mit einem Verdünner ohne Sterilisationsmittel. Die Prüfergebnisse sind in der Tabelle 2 angegeben.
Pflanzen des Winterweizens Gordeiforme 12303 werden in der V. Periode der Organogenese (nach Kupermann) mit 2%iger wäßriger Emulsion von 4-Karboxybutyldezylsulfid, Bis(2-äthylhexyläther) der δ, δ' -Thiodivaleriansäure, δ, δ' -Sulfonyldivaleriansäure behandelt. Die Emulsion enthält als Emulgiermittel 0,1 Masse% Kalziumalkylbenzolsulfonat mit 12 bis 14 Kohlenstoffatomen und 0,01 Masse% Dimethylformamid. Der Verbrauch an Präparat beträgt 16 kg/ha. Als Kontrolle dienen Pflanzen, behandelt mit einem Verdünner ohne Sterilisationsmittel.

In a further assay the test system is Sommerweizen. The assay is described as follows: Field test of gametocidal activity (sterilisation of anthers), spring wheat. As to conditions: V. Periode der Organogenese. The assay is classed as in vivo.
Excerpt: as §1, §2, §3, §4, §5
Pflanzen des Sommerweizens Sorte Moskowskaja 35 werden in der V. Periode der Organogenese (nach Kupermann) mit 1%iger wäßriger Emulsion von δ, δ' -Thiodivaleriansäure, Natriumsalz der δ, δ' -Thiodivaleriansäure, δ, δ'--Sulfonyldivaleriansäure, Natriumsalz der d, δ' -Sulfonyldivaleriansäure, Kaliumsalz der δ, δ' -Sulfornyldivaleriansäure, Bis (die-n-butyläther) der δ, δ' -Thiodivaleriansäure, 4-Karboxybutyldezylsulfid, Bis(2-äthylhexyläther) der δ, δ' -Thiodivaleriansäure behandelt. Die Emulsion enthält 0,1 Masse% Kalziumalkylbenzolsulfonat mit 12 bis 14 Kohlenstoffatomen und 0,01 Masse% Dimethylsulfoxid. Der Verbrauch an Präparat beträgt 6 kg/ha. Als Kontrolle dienen Pflanzen, behandelt mit einem Verdünner ohne Sterilisationsmittel. Die Prüfergebnisse sind in der Tabelle 4 angegeben. […] Periode der Organogenese erhalten.
(§6) Pflanzen des Sommerweizens Sorte Rodina werden in der V. Periode der Organogenese (nach Kupermann) mit l%iger wäßriger Emulsion von δ, δ' -Sulfornyldivaleriansäure, 4-Karboxybutyldezylsulfid, Bis(2-äthylhexyläther) der δ, δ' -Thiodivaleriansäure behandelt. Die Emulsion enthält 0,1 Masse% Kalziumalkylbenzolsulfonat mit 12 bis 14 Kohlenstoffatomen und 0,01 Masse% Tetrahydrofuran. Der Verbrauch an Präparat beträgt 6 kg/ha. Als Kontrolle dienen Pflanzen, behandelt mit einem Verdünner ohne Sterilisationsmittel. Die Prüfergebnisse sind in der Tabelle 5 angegeben. […] Periode der Organogenese erhalten.
Pflanzen des Sommerwizens Sorte Charkowskaja 9 werden in der V. Periode der Organogenese (nach Kupermann.) mit 1%iger waßriger Emulsion von Bis(di-n-butyläther) der δ, δ' -Thiodivaleriansäure, Bis(2-äthylhexyläther) der δ, δ' -Thiodivaleriansäure behandelt. Die Emulsion enthält 0,1 Masse% Kalziumalkylbenzolsulfonat mit 12 bis 14 Kohlenstoffatomen und 0,01 Masse% Äthylenglykol. Der Verbrauch an Präparat beträgt 8 kg/ha. Als Kontrolle dienen Pflanzen, behandelt mit einem Verdünner ohne Sterilisationsmittel. Die Prüfergebnisse sind in der Tabelle 6 angegeben. […] Periode der Organogenese erhalten.
as §6, with “Botanitscheskaja 4” for “Rodina”, “1%iger” for “l%iger”, “von Natriumsatz der” for “von”, “--Thiodivaleriansäure, Bis(di-n-butyläther) der δ, δ' -Thiodiväleriansäure,” for “-Sulfornyldivaleriansäure,”, “Dodezylsulfat.” for “Tetrahydrofuran.”, “7” for “5”

The mark [1] stands for this setting: Sorte Mironowskaja 808, 20 kg/ha.
[2] abbreviates: Sorte Botanitscheskaja 4, 1%ige wäßrige Emulsion, 6 kg/ha.
[3] abbreviates: Sorte Moskowskaja 35, 1%ige wäßrige Emulsion, 6 kg/ha.
The mark [4] stands for this setting: Sorte Charkowskaja 9, 1%ige Emulsion, 8 kg/ha.

Regarding `O=C([O-])CCCCSCCCCC(=O)[O-].[Na+].[Na+]` [Beispiel 2, Natriumsalz der δ, δ'-Thiodivaleriansäure], in the assay with Winterweizen (setting [1]), the “Anzahl von Körnern der Ähre bei freier Bestäubung” value is 35,3, the “Anzahl von Körnern der Ähre im Isolator” value is reported as 0,3, the “Prozentsatz der Sterilität” value was 99,3% and the “Prozentsatz des Ansetzens von Körnern bei freier Bestäubung” value is recorded as 85,7%.
Turning to `O=C(O)CCCCS(=O)(=O)CCCCC(=O)O` [Beispiel 3, δ, δ' -Sulfonyldivaleriansäure], in the assay with Winterweizen (setting [1]), the “Anzahl von Körnern der Ähre bei freier Bestäubung” value is given as 37,2, the “Anzahl von Körnern der Ähre im Isolator” value was 0,0, the “Prozentsatz der Sterilität” value is listed as 100,0% and the “Prozentsatz des Ansetzens von Körnern bei freier Bestäubung” value is recorded as 90,3%.
As to `O=C([O-])CCCCS(=O)(=O)CCCCC(=O)[O-].[Na+].[Na+]` [Beispiel 4, Natriumsalz der δ, δ' -Sulfonyldivaleriansäure], in the assay on Winterweizen (setting [1]), the “Anzahl von Körnern der Ähre bei freier Bestäubung” value is given as 34,1, the “Anzahl von Körnern der Ähre im Isolator” value is 0,1, the “Prozentsatz der Sterilität” value is recorded as 99,8% and the “Prozentsatz des Ansetzens von Körnern bei freier Bestäubung” value is recorded as 82,8%.
Consider `O=C([O-])CCCCS(=O)(=O)CCCCC(=O)[O-].[K+].[K+]` [Beispiel 5, Kaliumsalz der δ, δ'--Sulfonyldivaleriansäure], for which, in the assay on Winterweizen (setting [1]), the “Anzahl von Körnern der Ähre bei freier Bestäubung” value is 40,7, the “Anzahl von Körnern der Ähre im Isolator” value is recorded as 0,1, the “Prozentsatz der Sterilität” value is on record as 99,8% and the “Prozentsatz des Ansetzens von Körnern bei freier Bestäubung” value was 98,8%.
For `CCCCCCCCCCSCCCCC(=O)O` [Beispiel 7, 4-Karboxybutyldezylsulfid] the same measures were 35,6, 0,0, 100,0% and 86,4%.
The corresponding values for `CCCCC(CC)COC(=O)CCCCSCCCCC(=O)OCC(CC)CCCC` (centres unmarked) [Beispiel 8] are 36,1, 0,0, 100,0% and 87,6%.
In the case of `CCCCC(CC)COC(=O)CCCCSCCCCC(=O)OCC(CC)CCCC` (centres unmarked) [Beispiel 9, Bis(2-äthylhexyläther) der δ, δ' --Thiodivaleriansäure], in the assay on Winterweizen (Sorte Korall, 12 kg/ha), the “Anzahl von Körnern der Ähre bei freier Bestäubung” value is 30,8, the “Anzahl von Körnern der Ähre im Isolator” value is recorded as 0,0, the “Prozentsatz der Sterilität” value was 100,0% and the “Prozentsatz des Ansetzens von Körnern bei freier Bestäubung” value is 95,1%.
Take `CCCCCCCCCCSCCCCC(=O)O` [Beispiel 10, 4-Karboxybutyldezylsulfid]: in the assay on Winterweizen (Sorte Korall, 12 kg/ha), the “Anzahl von Körnern der Ähre bei freier Bestäubung” value is 29,1, the “Anzahl von Körnern der Ähre im Isolator” value is given as 0,1, the “Prozentsatz der Sterilität” value is recorded as 99,5% and the “Prozentsatz des Ansetzens von Körnern bei freier Bestäubung” value is listed as 89,8%.
On to `CCCCCCCCCCSCCCCC(=O)O` [Beispiel 12, 4-Karboxybutyldezylsulfid], for which, in the assay on Winterweizen (Gordeiforme 12303, 16 kg/ha), the “Anzahl von Körnern der Ähre bei freier Bestäubung” value is on record as 21,6, the “Anzahl von Körnern der Ähre im Isolator” value was 0,0, the “Prozentsatz der Sterilität” value is listed as 100,0% and the “Prozentsatz des Ansetzens von Körnern bei freier Bestäubung” value is 74,2%.
As to `CCCCC(CC)COC(=O)CCCCSCCCCC(=O)OCC(CC)CCCC` (centres unmarked) [Beispiel 13, Bis(2-äthylhexyläther) der δ, δ' -Thiodivaleriansäure], in the assay with Winterweizen (Gordeiforme 12303, 16 kg/ha), the “Anzahl von Körnern der Ähre bei freier Bestäubung” value is 25,3, the “Anzahl von Körnern der Ähre im Isolator” value is 0,0, the “Prozentsatz der Sterilität” value is 100,0% and the “Prozentsatz des Ansetzens von Körnern bei freier Bestäubung” value is given as 86,9%.
Regarding `O=C(O)CCCCS(=O)(=O)CCCCC(=O)O` [Beispiel 14, δ, δ' -Sulfonyldivaleriansäure], in the assay on Winterweizen (Gordeiforme 12303, 16 kg/ha), the “Anzahl von Körnern der Ähre bei freier Bestäubung” value is 23,6, the “Anzahl von Körnern der Ähre im Isolator” value is listed as 0,1, the “Prozentsatz der Sterilität” value is on record as 99,7% and the “Prozentsatz des Ansetzens von Körnern bei freier Bestäubung” value is 81,1%.
For the molecule `O=C([O-])CCCCSCCCCC(=O)[O-].[Na+].[Na+]` [Beispiel 28, Natriumsatz der δ, δ' --Thiodivaleriansäure], in the assay on Sommerweizen (setting [2]), the “Anzahl von Körnern der Ähre bei freier Bestäubung” value was 36,2, the “Anzahl von Körnern der Ähre im Isolator” value was 0,3, the “Prozentsatz der Sterilität” value is 99,2% and the “Prozentsatz des Ansetzens von Körnern bei freier Bestäubung” value is 90,0%.
`CCCCCCCCCCSCCCCC(=O)O` [Beispiel 30, 4-Karboxybutyldezylsulfid]: in the assay on Sommerweizen (setting [2]), the “Anzahl von Körnern der Ähre bei freier Bestäubung” value is given as 32,8, the “Anzahl von Körnern der Ähre im Isolator” value is recorded as 0,0, the “Prozentsatz der Sterilität” value is recorded as 100,0% and the “Prozentsatz des Ansetzens von Körnern bei freier Bestäubung” value is on record as 81,6%.
For the molecule `CCCCC(CC)COC(=O)CCCCSCCCCC(=O)OCC(CC)CCCC` (centres unmarked) [Beispiel 31, Bis(2-äthylhexyläther) der δ, δ' -Thiodivaleriansäure], in the assay on Sommerweizen (setting [2]), the “Anzahl von Körnern der Ähre bei freier Bestäubung” value is 33,4, the “Anzahl von Körnern der Ähre im Isolator” value is 0,0, the “Prozentsatz der Sterilität” value was 100,0% and the “Prozentsatz des Ansetzens von Körnern bei freier Bestäubung” value is 83,1%.
“Bis (die-n-butyläther) der δ, δ' -Thiodivaleriansäure [Beispiel 20]”: in the assay with Sommerweizen (setting [3]), the “Anzahl von Körnern der Ähre bei freier Bestäubung” value is reported as 28,7, the “Anzahl von Körnern der Ähre im Isolator” value is 0,0, the “Prozentsatz der Sterilität” value was 100,0% and the “Prozentsatz des Ansetzens von Körnern bei freier Bestäubung” value was 89,9%.
Regarding “Bis(di-n-butyläther) der δ, δ' -Thiodivaleriansäure [Beispiel 26]”, in the assay on Sommerweizen (setting [4]), the “Anzahl von Körnern der Ähre bei freier Bestäubung” value is 28,7, the “Anzahl von Körnern der Ähre im Isolator” value is 0,0, the “Prozentsatz der Sterilität” value is 100,0% and the “Prozentsatz des Ansetzens von Körnern bei freier Bestäubung” value is listed as 89,1%.
As for “Bis(di-n-butyläther) der δ, δ' -Thiodiväleriansäure [Beispiel 29]”, in the assay on Sommerweizen (setting [2]), the “Anzahl von Körnern der Ähre bei freier Bestäubung” value is reported as 30,6, the “Anzahl von Körnern der Ähre im Isolator” value was 0,0, the “Prozentsatz der Sterilität” value is recorded as 100,0% and the “Prozentsatz des Ansetzens von Körnern bei freier Bestäubung” value is reported as 76,2%.
